Results: patent US3991202A, “Imidazolium salts” (Janssen Pharmaceutica N.V., priority 1974, dated 1976)

Legend:
Assay in all cases: Antifungal growth inhibition in Sabouraud's liquid medium
Type in all cases: cell-based
Cryptococcus neoformans = conditions: Cr.n., tested at 100, 10, 1 μg/ml; for MIC: Cryptococcus neoformans, 336 h, read-out: Concentrations in μg/ml for 100% Inhibition of Growth
Experimental: (§1) Tests for the control of fungal organisms were performed using Sabouraud's liquid medium (1 g. of neopeptone Difco and 2 g. of glucose Difco per 100 ml. distilled water) in test tubes, each containing 4.5 ml. of liquid medium, autoclaved at 120° C for 15 minutes. The imidazolium salts were prepared for testing by dissolving in 50% ethanol to a concentration of 20 mg./ml. and thereafter diluting with sterile distilled water to obtain a concentration of 10 mg./ml. Successive decimal dilutions were then made with sterile distilled water to prepare a series of test solutions. In carrying out the test, 0.5 ml. of one of the test solutions is added to 4.5 ml. of Sabouraud's liquid medium to obtain a test medium. In this manner, from appropriate test solution, test media containing 100 μg, 10 μg and 1 μg of imidazolium salt per milliliter of medium were obtained.
(§2) Control tubes were prepared by adding 0.5 ml. of sterile distilled water to 4.5 ml. of medium. Ethanol was also added to simulate the amount which would be present in the test media. Filamentous fungi were incubated at 25° C for two to three weeks. A square block of side 2 mm. was excised and inoculated into the liquid medium. A 3-day old culture on Sabouraud's liquid medium was used for yeasts. The inoculum was 0.05 ml. per tube. All cultures were incubated at 25° C for 14 days.

[1] = tested on: Ctenomyces mentagrophytes; conditions: Ct.m., tested at 100, 10, 1 μg/ml; for MIC: Trichophyton mentagrophytes, 336 h, read-out: Concentrations in μg/ml for 100% Inhibition of Growth
Experimental: as §1, §2

Microsporum canis = conditions: M.c., tested at 100, 10, 1 μg/ml; for MIC: Microsporum canis, 336 h, read-out: Concentrations in μg/ml for 100% Inhibition of Growth
Experimental: as §1, §2

Trichophyton rubrum = conditions: Tr.r., tested at 100, 10, 1 μg/ml; for MIC: Trichophyton rubrum, 336 h, read-out: Concentrations in μg/ml for 100% Inhibition of Growth
Experimental: as §1, §2

Compound	MIC (Cryptococcus neoformans) [µg/mL]	MIC [1] [µg/mL]	MIC (Microsporum canis) [µg/mL]	MIC (Trichophyton rubrum) [µg/mL]	Concentrations in μg/ml for 100% Inhibition of Growth (Cryptococcus neoformans) [µg/mL]	Concentrations in μg/ml for 100% Inhibition of Growth [1] [µg/mL]	Concentrations in μg/ml for 100% Inhibition of Growth (Microsporum canis) [µg/mL]	Concentrations in μg/ml for 100% Inhibition of Growth (Trichophyton rubrum) [µg/mL]
Cc1cccc(C)c1N(C)C(=O)C[n+]1ccn(CC(OCc2ccc(Cl)cc2Cl)c2ccc(Cl)cc2Cl)c1 (stereo not drawn)	10	10	10	1	–	–	–	–
CC(C(=O)Nc1ccccc1Cl)[n+]1ccn(CC(OCc2ccc(Cl)cc2Cl)c2ccc(Cl)cc2Cl)c1 (stereo not drawn)	100	10	10	1	–	–	–	–
Cc1cccc(Cl)c1CNC(=O)C(C)[n+]1ccn(CC(OCc2ccc(Cl)cc2Cl)c2ccc(Cl)cc2Cl)c1 (stereo not drawn)	100	1	1	1	–	–	–	–
O=C(C[n+]1ccn(CC(OCc2ccc(Cl)cc2Cl)c2ccc(Cl)cc2Cl)c1)c1cccs1 (stereo not drawn)	10	1	10	1	–	–	–	–
O=C(C[n+]1ccn(CC(OCc2ccc(Cl)cc2Cl)c2ccc(Cl)cc2Cl)c1)c1ccc(Cl)s1 (stereo not drawn)	10	1	1	1	–	–	–	–
OC(C[n+]1ccn(CC(OCc2ccc(Cl)cc2Cl)c2ccc(Cl)cc2Cl)c1)c1ccc(Cl)cc1 (stereo not drawn)	10	1	10	1	–	–	–	–
1-(β-butoxy2,4-dichlorophenethyl)-3-[p-chloro-a-(p-fluorophenyl)benzyl]imidazolium chloride	–	–	–	–	100	10	10	10
Cc1ccccc1NC(=O)C[n+]1ccn(CC(OCc2ccc(Cl)cc2)c2ccc(Cl)cc2Cl)c1 (stereo not drawn) [2,4(Cl)2C6H3/CH2C6H4pCl/CH2CONHoCH3, 1-[2,4-Dichloro-β-(p-chlorobenzyloxy)phenethyl]-3-(N-o-tolylcarbamoymethyl)imidazolium cholride]	10	1	10	1	–	–	–	–
C=CCOC(Cn1cc[n+](CC(=O)c2ccc(F)cc2)c1)c1ccc(Cl)cc1Cl (stereo not drawn) [2,4(Cl)2C6H3/CH2CHCH2/CH2COC6H4pF, 1-[β-(alloyloxy)-2,4-dichlorophenethyl]-3-(p-fluorophenacyl)imidazolium chloride]	100	10	10	10	–	–	–	–
OC(C[n+]1ccn(CC(OCc2ccc(Cl)cc2)c2ccc(Cl)cc2Cl)c1)c1ccc(Cl)cc1 (stereo not drawn) [2,4(Cl)2C6H3/drawing 65/CH2CHOHC6H4pCl]	100	1	1	1	–	–	–	–
O=C(C[n+]1ccn(CC(OCc2ccc(Cl)cc2)c2ccc(Cl)cc2Cl)c1)c1ccc(F)cc1 (stereo not drawn) [2,4(Cl)2C6H3/drawing 65/CH2COC6H4pF]	10	1	1	1	–	–	–	–
OC(C[n+]1ccn(CC(OCc2c(Cl)cccc2Cl)c2ccc(Cl)cc2Cl)c1)c1ccc(Cl)cc1 (stereo not drawn) [2,4(Cl)2C6H3/drawing 66/CH2CHOHC6H4pCl]	10	10	10	1	–	–	–	–
O=C(C[n+]1ccn(CC(OCc2c(Cl)cccc2Cl)c2ccc(Cl)cc2Cl)c1)c1ccc(F)cc1 (stereo not drawn) [2,4(Cl)2C6H3/drawing 66/CH2COC6H4pF]	10	10	10	1	–	–	–	–
CCCCOC(Cn1cc[n+](CC(=O)Nc2ccc(F)cc2)c1)c1ccc(Cl)cc1Cl (stereo not drawn) [2,4(Cl)2C6H3/nC4H9/CH2CONHC6H4pF, 1-(β-Butoxy-2,4-dichlorophenethyl)-3-[N-(p-fluorophenyl)carbamoylmethyl]imidazolium chloride]	100	10	10	10	–	–	–	–
O=C(CCn1cc[n+](CC(OCc2ccc(Cl)cc2Cl)c2ccc(Cl)cc2Cl)c1)c1ccc(Br)cc1.[Cl-] (stereo not drawn) [(CH2)2COC6H4pBr, 1-[2-(p-Bromobenzoyl)ethyl]-3-[2,4-dichloro-β-(2,4-dichlorobenzyloxy)phenethyl]imidazolium chloride]	1	1	10	1	–	–	–	–
O=C(CCn1cc[n+](CC(OCc2ccc(Cl)cc2Cl)c2ccc(Cl)cc2Cl)c1)c1ccc(Cl)cc1.[Cl-] (stereo not drawn) [(CH2)2COC6H4pCl, 1-[2-(p-Chlorobenzoyl)ethyl]-3-[2,4-dichloro-β-(2,4dichlorobenzyloxy)phenethyl]imidazolium chloride]	1	1	1	1	–	–	–	–
O=C(CC[n+]1ccn(CC(OCc2ccc(Cl)cc2Cl)c2ccc(Cl)cc2Cl)c1)Nc1ccccc1[N+](=O)[O-].[Cl-] (stereo not drawn) [(CH2)2CONHC6H4oNO2, 1-[2,4-Dichloro-β-(2,4-dichlorobenzyloxy)-phenethyl]-3-{2-[N-(o-nitrophenyl)carbamoyl]ethyl}imidazolium chloride]	100	1	10	1	–	–	–	–
Clc1ccc(NCCn2cc[n+](CC(OCc3ccc(Cl)cc3Cl)c3ccc(Cl)cc3Cl)c2)cc1.[Br-] (stereo not drawn) [(CH2)2NHC6H4pCl, 1-[2-(p-chloroanilino)ethyl]-3-[2,4-dichloro-β-(2,4-dichlorobenzyloxy)phenethyl]imidazolium bromide]	1	10	10	10	–	–	–	–
Cc1cccc(C)c1OCC[n+]1ccn(CC(OCc2ccc(Cl)cc2Cl)c2ccc(Cl)cc2Cl)c1.[Br-] (stereo not drawn) [(CH2)2OC6H32,6(CH3)2, 1-[2,4-Dichloro-β-(2,4-dichlorobenzyloxy)phenethyl]-3-[2-(2,6-xylyloxy)ethyl]imidazolium bromide]	1	1	10	10	–	–	–	–
Clc1ccc(COC(Cn2cc[n+](CCOc3ccc4ccccc4c3)c2)c2ccc(Cl)cc2Cl)c(Cl)c1.O.[Br-] (stereo not drawn) [(CH2)2OC10H7, 1-[2,4-Dichloro-β-(2,4-dichlorobenzyloxy)phenethyl]3-[2-(2-naphthyloxy)ethyl]imidazolium bromide hydrate]	1	10	10	10	–	–	–	–
Clc1ccc(COC(Cn2cc[n+](CCCOc3ccc4ccccc4c3)c2)c2ccc(Cl)cc2Cl)c(Cl)c1.O.[Cl-] (stereo not drawn) [(CH2)3OC10H7, 1-[2,4-Dichloro-β-(2,4-dichlorobenzyloxy)phenethyl]-3-[3-(2-naphthyloxy)propyl]imidazolium chloride hydrate]	100	10	10	10	–	–	–	–
Clc1ccc(C=CCn2cc[n+](CC(OCc3ccc(Cl)cc3Cl)c3ccc(Cl)cc3Cl)c2)c(Cl)c1.[Cl-] (stereo not drawn) [CH2CHCHC6H3s,4(Cl)2, 1-(2,4-dichlorocinnamyl)-3-[2,4-dichloro-β-(2,4-dichlorobenzyloxy)phenethyl]-imidazolium chloride]	10	1	10	10	–	–	–	–
Clc1ccc(COC(C[n+]2ccn(CC=Cc3ccccc3)c2)c2ccc(Cl)cc2Cl)c(Cl)c1.[Cl-] (stereo not drawn) [CH2CHCHC6H5, 1-Cinnamyl-3-[2,4-dichloro-β-(2,4-dichlorobenzyloxy)phenethyl]imidazolium chloride]	100	10	10	1	–	–	–	–
COc1cccc(C(=O)C[n+]2ccn(CC(OCc3ccc(Cl)cc3Cl)c3ccc(Cl)cc3Cl)c2)c1.[Br-] (stereo not drawn) [CH2COC6H4mOCH3, 1-[2,4-dichloro-β-(2,4-dichlorobenzyloxy)phenethyl]-3-(m-methoxyphenacyl)imidazolium bromide]	10	1	10	1	–	–	–	–
COc1ccc(C(=O)C[n+]2ccn(CC(OCc3ccc(Cl)cc3Cl)c3ccc(Cl)cc3Cl)c2)cc1.[Br-] (stereo not drawn) [CH2COC6H4p(OCH3), 1-[2,4-Dichloro-β-(2,4-dichlorobenzyloxy)phenethyl]-3-(p-methoxyphenacyl)imidazolium bromide]	10	10	10	1	–	–	–	–
O=C(Cn1cc[n+](CC(OCc2ccc(Cl)cc2Cl)c2ccc(Cl)cc2Cl)c1)c1ccc(Br)cc1.[Cl-] (stereo not drawn) [CH2COC6H4pBr, 1-(p-bromobenzoylmethyl)-3-[2,4-dichloro-β-(2,4-dichlorobenzyloxy)phenethyl]imidazolium chloride]	1	1	10	1	–	–	–	–
O=C(Cn1cc[n+](CC(OCc2ccc(Cl)cc2Cl)c2ccc(Cl)cc2Cl)c1)c1ccc(Cl)cc1.[Br-] (stereo not drawn) [CH2COC6H4pCl, 1-(p-chlorobenzoylmethyl)-3-[2,4-dichloro-β-(2,4-dichlorobenzyloxy)phenethyl]imidazolium bromide]	1	1	1	1	–	–	–	–
